Experimental data as given in ChEMBL document CHEMBL4765419, “Design, synthesis and bioactivity evaluation of novel arylalkene-amide derivatives as dual-target antifungal inhibitors” (Eur J Med Chem, 2020).
Activity calls are given as the source filed them. No cut-off for these calls is given here.

Columns and labels:
Candida albicans [1] = experiment: Antifungal activity against Candida albicans assessed as inhibition of microbial growth by two fold broth microdilution method; format: functional
Pichia kudriavzevii = experiment: Antifungal activity against Candida krusei assessed as inhibition of microbial growth by two fold broth microdilution method; format: functional
Nakaseomyces glabratus = experiment: Antifungal activity against Candida glabrata assessed as inhibition of microbial growth by two fold broth microdilution method; format: functional
Aspergillus fumigatus = experiment: Antifungal activity against Aspergillus fumigatus assessed as inhibition of microbial growth by two fold broth microdilution method; format: functional
Candida tropicalis = experiment: Antifungal activity against Candida tropicalis assessed as inhibition of microbial growth by two fold broth microdilution method; format: functional
Candida albicans [2] = experiment: Antifungal activity against fluconazole-resistant Candida albicans 17# assessed as inhibition of microbial growth by two fold broth microdilution method; format: functional
Candida albicans [3] = experiment: Antifungal activity against fluconazole-resistant Candida albicans CaR assessed as inhibition of microbial growth by two fold broth microdilution method; format: functional
Candida albicans [4] = experiment: Antifungal activity against fluconazole-resistant Candida albicans 632 assessed as inhibition of microbial growth by two fold broth microdilution method; format: functional
Candida albicans [5] = experiment: Antifungal activity against fluconazole-resistant Candida albicans 901 assessed as inhibition of microbial growth by two fold broth microdilution method; format: functional
Candida albicans [6] = experiment: Antifungal activity against fluconazole-resistant Candida albicans 904 assessed as inhibition of microbial growth by two fold broth microdilution method; format: functional
Candida albicans [7] = experiment: Antifungal activity against Candida albicans ATCC SC5314 assessed as decrease in fungal cell density by polarizing microscopy; format: functional, organism-based
Candida albicans SC5314 [8] = experiment: Inhibition of SE/CYP51 in Candida albicans ATCC SC5314 assessed as ergosterol level at 4 ug/ml incubated for 16 hrs by LC/MS analysis (reference value: 79.43 %); set-up: scale not given: the % may be the effect or the level left; conditions: dose 4.0 µg/ml
Candida albicans SC5314 [9] = experiment: Inhibition of SE/CYP51 in Candida albicans ATCC SC5314 assessed as lanosterol level at 4 ug/ml incubated for 16 hrs by LC/MS analysis (reference value: 6.62 %); set-up: scale not given: the % may be the effect or the level left; conditions: dose 4.0 µg/ml
Candida albicans SC5314 [10] = experiment: Inhibition of SE/CYP51 in Candida albicans ATCC SC5314 assessed as eburicol level at 4 ug/ml incubated for 16 hrs by LC/MS analysis (reference value: 4.67 %); set-up: scale not given: the % may be the effect or the level left; conditions: dose 4.0 µg/ml
Candida albicans SC5314 [11] = experiment: Inhibition of SE/CYP51 in Candida albicans ATCC SC5314 assessed as squalene level at 4 ug/ml incubated for 16 hrs by LC/MS analysis (reference value: 2.25 %); set-up: scale not given: the % may be the effect or the level left; conditions: dose 4.0 µg/ml
Candida albicans SC5314 [12] = experiment: Inhibition of SE/CYP51 in Candida albicans ATCC SC5314 assessed as unidentified sterol level at 4 ug/ml incubated for 16 hrs by LC/MS analysis (reference value: 7.03 %); set-up: scale not given: the % may be the effect or the level left; conditions: dose 4.0 µg/ml
[13] = Stability in human plasma incubated for 60 mins; format: ADME, cell-free; conditions: read-out: Stabilty
[14] = Stability in human plasma incubated for 120 mins; format: ADME, cell-free; conditions: read-out: Stabilty
Candida albicans [15] = experiment: In vivo antifungal activity against Candida albicans infected in mouse assessed as reduction in tissue infection injected via abdomen for 7 days by H and E staining based histological analysis; format: functional, organism-based; conditions: time 7.0 day
Candida albicans [16] = experiment: In vivo antifungal activity against Candida albicans infected in mouse assessed as uniform cell distribution injected via abdomen for 7 days by H and E staining based histological analysis; format: functional, organism-based; conditions: time 7.0 day
Candida albicans [17] = experiment: In vivo antifungal activity against Candida albicans infected in mouse assessed as disappearance of infected positions injected via abdomen for 7 days by H and E staining based histological analysis; format: functional, organism-based; conditions: time 7.0 day
Candida albicans [18] = experiment: In vivo antifungal activity against Candida albicans infected in mouse assessed as disappearance of cell nuclear aggregation injected via abdomen for 7 days by H and E staining based histological analysis; format: functional, organism-based; conditions: time 7.0 day
[19] = Toxicity in mouse infected with Candida albicans assessed as change in body weight administered via abdomen for 7 days; conditions: in vivo, ip, 168 h, time 7 day
[20] = Toxicity in mouse infected with Candida albicans assessed as change in heart morphology administered via abdomen for 7 days by H and E staining based histological analysis; conditions: in vivo, ip, 168 h, time 7 day
[21] = Toxicity in mouse infected with Candida albicans assessed as change in liver morphology administered via abdomen for 7 days by H and E staining based histological analysis; conditions: in vivo, ip, 168 h, time 7 day
[22] = Toxicity in mouse infected with Candida albicans assessed as change in spleen morphology administered via abdomen for 7 days by H and E staining based histological analysis; conditions: in vivo, ip, 168 h, time 7 day
[23] = Toxicity in mouse infected with Candida albicans assessed as change in kidney morphology administered via abdomen for 7 days by H and E staining based histological analysis; conditions: in vivo, ip, 168 h, time 7 day
[24] = Toxicity in mouse infected with Candida albicans assessed as change in lung morphology administered via abdomen for 7 days by H and E staining based histological analysis; conditions: in vivo, ip, 168 h, time 7 day
[25] = Hepatotoxicity in mouse infected with Candida albicans assessed as aspartate aminotransferase level in plasma administered via abdomen for 7 days (reference value: 109.4 +/-4.8 IU/L); format: toxicity; conditions: ip, 168 h, time 7 day
[26] = Hepatotoxicity in mouse infected with Candida albicans assessed as effect on alanine aminotransferase level in plasma administered via abdomen for 7 days (reference value: 102 +/-9.2 IU/L); format: toxicity; conditions: ip, 168 h, time 7 day
[27] = Renal toxicity in mouse infected with Candida albicans assessed as effect on blood urea nitrogen level administered via abdomen for 7 days (reference value: 6.7 +/-0.3 mmol/L); conditions: in vivo, ip, 168 h, time 7 day
Candida albicans [28] = experiment: Antifungal activity against Candida albicans ATCC SC5314 assessed as irregular cell structure at 4 ug/ml incubated for 72 hrs by TEM analysis; format: functional, organism-based; conditions: dose 4.0 µg/ml
Candida albicans [29] = experiment: Antifungal activity against Candida albicans ATCC SC5314 assessed as disappearance of fungal cell boundaries at 4 ug/ml incubated for 72 hrs by TEM analysis; format: functional, organism-based; conditions: dose 4.0 µg/ml
Candida albicans [30] = experiment: Antifungal activity against Candida albicans ATCC SC5314 assessed as loss of cell permeability at 4 ug/ml incubated for 72 hrs by TEM analysis; format: functional, organism-based; conditions: dose 4.0 µg/ml
Candida albicans [31] = experiment: Antifungal activity against Candida albicans ATCC SC5314 assessed as leakage of endogenous substances at 4 ug/ml incubated for 72 hrs by TEM analysis; format: functional, organism-based; conditions: dose 4.0 µg/ml
Candida albicans [32] = experiment: Antifungal activity against Candida albicans ATCC SC5314 assessed as vesicles formation at 4 ug/ml incubated for 72 hrs by TEM analysis; format: functional, organism-based; conditions: dose 4.0 µg/ml
Candida albicans [33] = experiment: Antifungal activity against Candida albicans ATCC SC5314 assessed as edema cavitation at 4 ug/ml incubated for 72 hrs by TEM analysis; format: functional, organism-based; conditions: dose 4.0 µg/ml
Candida albicans [34] = experiment: Antifungal activity against Candida albicans ATCC SC5314 assessed as nuclear membrane cleavage at 4 ug/ml incubated for 72 hrs by TEM analysis; format: functional, organism-based; conditions: dose 4.0 µg/ml
Candida albicans [35] = experiment: Antifungal activity against Candida albicans ATCC SC5314 assessed as cell lysis at 4 ug/ml […] by TEM analysis; format: functional, organism-based; conditions: dose 4.0 µg/ml
Candida albicans SC5314 [36] = experiment: Inhibition of CYP51 in Candida albicans ATCC SC5314 assessed as ergosterol level at 4 ug/ml incubated for 16 hrs by LC/MS analysis (reference value: 79.43 %); set-up: scale not given: the % may be the effect or the level left; conditions: dose 4.0 µg/ml
Candida albicans SC5314 [37] = experiment: Inhibition of CYP51 in Candida albicans ATCC SC5314 assessed as lanosterol level at 4 ug/ml incubated for 16 hrs by LC/MS analysis (reference value: 6.62 %); set-up: scale not given: the % may be the effect or the level left; conditions: dose 4.0 µg/ml
Candida albicans SC5314 [38] = experiment: Inhibition of CYP51 in Candida albicans ATCC SC5314 assessed as eburicol level at 4 ug/ml incubated for 16 hrs by LC/MS analysis (reference value: 4.67 %); set-up: scale not given: the % may be the effect or the level left; conditions: dose 4.0 µg/ml
Candida albicans SC5314 [39] = experiment: Inhibition of CYP51 in Candida albicans ATCC SC5314 assessed as squalene level at 4 ug/ml incubated for 16 hrs by LC/MS analysis (reference value: 2.25 %); set-up: scale not given: the % may be the effect or the level left; conditions: dose 4.0 µg/ml
Candida albicans SC5314 [40] = experiment: Inhibition of CYP51 in Candida albicans ATCC SC5314 assessed as unidentified sterol level at 4 ug/ml incubated for 16 hrs by LC/MS analysis (reference value: 7.03 %); set-up: scale not given: the % may be the effect or the level left; conditions: dose 4.0 µg/ml

| Structure (SMILES) | MIC (Candida albicans [1]) | MIC (Pichia kudriavzevii) | MIC (Nakaseomyces glabratus) | MIC (Aspergillus fumigatus) | MIC (Candida tropicalis) | MIC (Candida albicans [2]) | MIC (Candida albicans [3]) | MIC (Candida albicans [4]) | MIC (Candida albicans [5]) | MIC (Candida albicans [6]) | Activity (Candida albicans [7]) | Activity (Candida albicans SC5314 [8]) | Activity (Candida albicans SC5314 [9]) | Activity (Candida albicans SC5314 [10]) | Activity (Candida albicans SC5314 [11]) | Activity (Candida albicans SC5314 [12]) | remaining at 1 h [13] | remaining at 2 h [14] | Activity (Candida albicans [15]) | Activity (Candida albicans [16]) | other results |
| --- | --- | --- | --- | --- | --- | --- | --- | --- | --- | --- | --- | --- | --- | --- | --- | --- | --- | --- | --- | --- | --- |
| O=C(/C=C/c1cccc2ccccc12)NC(Cn1ccnc1)C(=O)Nc1ccccc1 (configuration not stated) | 0.125 µg/mL | 0.25 µg/mL | 0.125 µg/mL | 4 µg/mL | 0.25 µg/mL | 4 µg/mL | 8 µg/mL | 8 µg/mL | 8 µg/mL | > 16 µg/mL | Active | 10.7% | 14.5% | 40.1% | 29.1% | 5.46% | 89.7% | 84.1% | Active | Active | Activity (Candida albicans [17]): Active; Activity (Candida albicans [18]): Active; Activity [19]: Non-Toxic; Activity [20]: Non-Toxic; Activity [21]: Non-Toxic; Activity [22]: Non-Toxic; Activity [23]: Non-Toxic; Activity [24]: Non-Toxic; Activity [25]: 101.5 IU/L; Activity [26]: 105 IU/L; Activity [27]: 6.9 mmol/L |
| O=C(NCc1ccncc1)C(=O)N/N=C/c1cccc2ccccc12 | 0.125 µg/mL | 0.5 µg/mL | 0.25 µg/mL | 2 µg/mL | 0.125 µg/mL | 4 µg/mL | 4 µg/mL | 8 µg/mL | 4 µg/mL | 8 µg/mL | Active | 8.27% | 11.3% | 32.8% | 42.9% | 4.71% | 92.3% | 86.5% | Active | Active | Activity (Candida albicans [28]): Active; Activity (Candida albicans [29]): Active; Activity (Candida albicans [30]): Active; Activity (Candida albicans [31]): Active; Activity (Candida albicans [32]): Active; Activity (Candida albicans [33]): Active; Activity (Candida albicans [34]): Active; Activity (Candida albicans [35]): Active; Activity (Candida albicans [17]): Active; Activity (Candida albicans [18]): Active; Activity [19]: Non-Toxic; Activity [20]: Non-Toxic; Activity [21]: Non-Toxic; Activity [22]: Non-Toxic; Activity [23]: Non-Toxic; Activity [24]: Non-Toxic; Activity [25]: 112.7 IU/L; Activity [26]: 117 IU/L; Activity [27]: 7.1 mmol/L |
| CN(CC(=O)NCc1ccncc1)C(=O)/C=C/c1ccc2ccccc2c1 | 0.25 µg/mL | 0.25 µg/mL | 0.125 µg/mL | 8 µg/mL | 0.25 µg/mL | > 16 µg/mL | 8 µg/mL | 8 µg/mL | > 16 µg/mL | > 16 µg/mL | – | – | – | – | – | – | – | – | – | – | – |
| CN(C/C=C/c1ccccc1)Cc1cccc2ccccc12 [NAFTIFINE] | 0.5 µg/mL | 0.5 µg/mL | 1 µg/mL | 4 µg/mL | 2 µg/mL | 8 µg/mL | > 16 µg/mL | 8 µg/mL | > 16 µg/mL | 8 µg/mL | Active | – | – | – | – | – | – | – | – | – | – |
| OC(Cn1cncn1)(Cn1cncn1)c1ccc(F)cc1F [FLUCONAZOLE] | 0.25 µg/mL | 1 µg/mL | 0.5 µg/mL | > 16 µg/mL | 0.5 µg/mL | > 16 µg/mL | > 16 µg/mL | > 16 µg/mL | > 16 µg/mL | > 16 µg/mL | Active | – | – | – | – | – | – | – | – | – | Activity (Candida albicans SC5314 [36]): 7.62%; Activity (Candida albicans SC5314 [37]): 13.9%; Activity (Candida albicans SC5314 [38]): 65.5%; Activity (Candida albicans SC5314 [39]): 3.68%; Activity (Candida albicans SC5314 [40]): 9.26% |
